The record followed here is patent US8198273B2, “Compounds and methods for kinase modulation, and indications therefor” (Plexxikon Inc., priority 2009, dated 2012).

Assay [1] has as its system SKMEL3 melanoma cells (B-Raf V600E). The assay can be described thus: SKMEL3 cell growth inhibition (ATPlite). Particulars: Homo sapiens, SK-MEL3, 72 h; SKMEL3, 3 days incubation. The class given is cell-based. The procedure:
(§1) Compounds are assessed in a variety of cell based assays. For example human cell lines with B-Raf V600E mutation (A375 melanoma, SKMEL3 melanoma, and COL0205 colon adenocarcinoma), as well as tumorigenic cell lines with wild-type B-RAF (SW620 colon adenocarcinoma) or with Ras mutations (SKMEL2 melanoma and IPC298 melanoma). Similar assays may be used to assess additional tumorigenic cell lines with Ras mutations, including, but not limited to, M202, M207, M243, M244, M296, S117, HCT116, HCT15, DLD1, MiaPaCa, A549, NCI-H23, NCI-H460, HOP62, MDA-MB231, Hs-578T, HL60, MOLT-4, and CCRF-CEM.
(§2) On day 1, cells are counted, then centrifuged in a conical tube for 5 minutes at 1000 rpm. The supernatant is removed and cells are re-suspended as follows: • SW620 (ATCC catalog #CCL-27): resuspend in Leibovitz's L-15 medium, 2 mM L-glutamine, 10% fetal bovine serum to 6×10^4 cells/mL. • A375 (ATCC catalog #CRL-1619): resuspend in Dulbecco's modified Eagle's medium, 4 mM L-glutamine, 4.5 g/L D-glucose, 10% fetal bovine serum to 6×10^4 cells/mL. • COL0205 (ATCC catalog #CCL-222): resuspend in RPMI 1640, 2 mM L-glutamine, 1.5 g/L sodium bicarbonate, 4.5 g/L D-glucose, 10 mM HEPES, 1.0 mM sodium pyruvate, 10% fetal bovine serum to 6×10^4 cells/mL. • SKMEL2 (ATCC catalog #HTB-68): resuspend in Minimum Eagle essential medium, 2 mM L-glutamine, 1.5 g/L sodium bicarbonate, 0.1 mM non-essential amino acids, 1.0 mM sodium pyruvate, 10% fetal bovine serum to 6×10^4 cells/mL. • SKMEL3 (ATCC catalog #HTB-69): resuspend in McCoy's 5A medium, 1.5 mM L-glutamine, 15% fetal bovine serum to 6×10^4 cells/mL. • IPC298 (DSMZ catalog #ACC 251): resuspend in RPMI 1640, 2 mM L-glutamine, 10% fetal bovine serum to 6×10^4 cells/mL.
(§3) The cells are plated, 50 μL in each well of a 96-well dish (Corning 3610) and incubated at 37° C. in 5% CO2 overnight, cells plated to a final concentration of cells as follows:
SKMEL3: 3,000 cells per well.
On day 2, compound at a maximum concentration of 5 mM is serially diluted 1:3 for a total of 8 point titration with DMSO as a control. A 1 μL aliquot of each dilution point and control is added to 249 μL growth media and 50 μL is added to a well containing cells, providing 10 μM compound at the maximum concentration point. The cells are incubated for 3 days at 37° C. in 5% CO2.
(§4) On day 5, ATPlite 1 step Luminescence Assay System (Perkin Elmer #6016739) is brought to room temperature along with the cell cultures. ATPlite is added 25 μL to each well, shake for 2 minutes, and the cells are incubated at room temperature for 10 minutes, then luminescence is read on Safire reader. The measured luminescence correlates directly with cell number, such that the reading as a function of compound concentration is used to determine the IC50 value.
It is understood that the results of these assays may vary as assay conditions are varied. Inhibition levels determined under the conditions described herein represent a relative activity for the compounds tested under the specific conditions employed. The cell based assays are likely to show variability due to the complexity of the system and the sensitivity thereof to any changes in the assay conditions. […] Results for compounds that are tested and show substantially no inhibition below the highest tested concentration are represented as “-” in the tables below. In some instances, the compounds were not tested in all of the assays, or assay results were not valid, as indicated by NA in the tables below.
(In general: In ATP-based viability assays light output follows the ATP content of the culture.)

For assay [2], the system named is IPC298 melanoma cells (Ras mutation). The assay can be described thus: IPC298 cell growth inhibition (ATPlite). Particulars: Homo sapiens, IPC-298, 72 h; IPC298, 3 days incubation. The class given is cell-based. The procedure:
as §1, §2, §3
On day 2, compound at a maximum concentration of 5 mM is serially diluted 1:3 for a total of 8 point titration with DMSO as a control. […]
as §4
It is understood that the results of these assays may vary as assay conditions are varied. Inhibition levels determined under the conditions described herein represent a relative activity for the compounds tested under the specific conditions employed. […]

Bounds are passed on as bounds.

For the compound `COc1ncc(-c2cnc3[nH]cc(C(=O)c4c(F)ccc(NS(=O)(=O)c5ccccc5F)c4F)c3c2)cn1` [P-2041, N-{2,4-Difluoro-3-[5-(2-methoxy-pyrimidin-5-yl)-1H-pyrrolo[2,3-b]pyridine-3-carbonyl]-phenyl}-2-fluoro-benzenesulfonamide], the IC50 (in general, the midpoint of a concentration-inhibition curve) in assay [1] was < 1000 nM; in assay [2] it was < 1 µM.

With `COc1ncc(-c2cnc3[nH]cc(C(=O)c4c(F)ccc(NS(=O)(=O)c5cc(F)ccc5F)c4F)c3c2)cn1` [P-2042, N-{2,4-Difluoro-3-[5-(2-methoxy-pyrimidin-5-yl)-1H-pyrrolo[2,3-b]pyridine-3-carbonyl]-phenyl}-2,5-difluoro-benzenesulfonamide], the figures for the half-maximal inhibitory concentration (IC50) in assay [1] and in assay [2] were < 1000 nM and < 1 µM, respectively. Consider `COc1ncc(-c2cnc3[nH]cc(C(=O)c4c(F)ccc(NS(=O)(=O)c5cccc(F)c5)c4F)c3c2)cn1` [P-2045, N-{2,4-Difluoro-3-[5-(2-methoxy-pyrimidin-5-yl)-1H-pyrrolo[2,3-b]pyridine-3-carbonyl]-phenyl}-3-fluoro-benzenesulfonamide], for which the 50% inhibitory concentration (IC50) in assay [1] is < 5000 nM. Turning to `CCCS(=O)(=O)Nc1ccc(F)c(C(=O)c2c[nH]c3ncc(-c4cnc(SC)nc4)cc23)c1F` [P-2189, Propane-1-sulfonic acid {2,4-difluoro-3-[5-(2-methylsulfanyl-pyrimidin-5-yl)-1H-pyrrolo[2,3-b]pyridine-3-carbonyl]-phenyl}-amide], the IC50 in assay [2] was < 10 µM. For the compound `CCCS(=O)(=O)Nc1ccc(F)c(C(=O)c2c[nH]c3ncc(-c4cnc(N(C)C)nc4)cc23)c1F` [P-2196, Propane-1-sulfonic acid {3-[5-(2-dimethylamino-pyrimidin-5-yl)-1H-pyrrolo[2,3-b]pyridine-3-carbonyl]-2,4-difluoro-phenyl}-amide], the half-maximal inhibitory concentration (IC50) in assay [1] is < 1000 nM; in assay [2] it was < 10 µM. As to `CCCS(=O)(=O)Nc1ccc(F)c(C(=O)c2c[nH]c3ncc(-c4cnc(N5CCCC5)nc4)cc23)c1F` [P-2219, Propane-1-sulfonic acid {2,4-difluoro-3-[5-(2-pyrrolidin-1-yl-pyrimidin-5-yl)-1H-pyrrolo[2,3-b]pyridine-3-carbonyl]-phenyl}-amide], the 50% inhibitory concentration (IC50) in assay [1] was < 5000 nM.
